Among the test systems are 786-0 renal; HCT-15 colon; M14 melanoma; NCI/ADR-RES ovarian; OVCAR-5 ovarian; RXF 393 renal; SK-MEL-5 melanoma; SK-OV-3 ovarian; TK-10 renal; UACC-257 melanoma; MDA-N.
Common to all, as to assay: growth of human tumour cells (NCI), 48 h

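Interpolation was linear, between the two tested concentrations surrounding the appropriate level; five concentrations were tested over 48 hours in 96-well plates. GI50 marks 50% less growth. TGI denotes the concentration required for complete inhibition of growth.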

On to `C/C(=C\COP(=O)(O)OP(=O)(O)O)CC/C=C(\C)CNc1c(F)c(F)c(F)c(F)c1F`, for which the TGI in the experiment with 786-0 renal, in the experiment with HCT-15 colon, in the experiment with M14 melanoma, in the experiment on NCI/ADR-RES ovarian, in the experiment with OVCAR-5 ovarian and with RXF 393 renal was over 100 µM throughout. Also, the TGI with SK-MEL-5 melanoma, with SK-OV-3 ovarian, with TK-10 renal and with UACC-257 melanoma was over 100 µM each time.
For `CC(=O)N(C(=O)CC(=O)N1N=C(C)C(N=Nc2cccc([N+](=O)[O-])c2)C1=O)c1ccc(Cl)cc1` (stereo not given), the TGI with 786-0 renal, with HCT-15 colon, in the experiment with M14 melanoma, with MDA-N, in the experiment on NCI/ADR-RES ovarian and in the experiment on OVCAR-5 ovarian was over 10 µM each time. For the same molecule, the TGI with SK-MEL-5 melanoma, in the experiment with SK-OV-3 ovarian, with TK-10 renal and in the experiment on UACC-257 melanoma was over 10 µM throughout.
Turning to `Clc1ccc(Cc2nc3cc4ccccc4cc3[nH]2)cc1Cl`, the TGI in the experiment with 786-0 renal is over 100 µM; in the experiment with HCT-15 colon it was over 100 µM; with M14 melanoma, 75.3 µM; in the experiment on NCI/ADR-RES ovarian it was 96.4 µM; in the experiment on OVCAR-5 ovarian, over 100 µM; with RXF 393 renal, 40.2 µM. Also, the TGI with SK-MEL-5 melanoma stood at 20.4 µM; in the experiment on TK-10 renal, 39.8 µM; in the experiment with UACC-257 melanoma it was 37.7 µM.
With `O=c1[nH]nc(-c2cccc([N+](=O)[O-])c2)[nH]1`, the TGI in the experiment on 786-0 renal, with HCT-15 colon, with M14 melanoma, in the experiment with MDA-N, in the experiment with NCI/ADR-RES ovarian and in the experiment with OVCAR-5 ovarian was over 100 µM each time. The TGI in the experiment on RXF 393 renal, with TK-10 renal and in the experiment on UACC-257 melanoma was over 100 µM in each case.
`CCC(C)C(NC(=O)c1cccc2c(=O)c3ccccc3[nH]c12)C(=O)O` (stereo not given): the TGI in the experiment with 786-0 renal, with HCT-15 colon, with M14 melanoma, in the experiment with MDA-N, in the experiment on NCI/ADR-RES ovarian and with OVCAR-5 ovarian was over 100 µM each time. Besides, the TGI with SK-MEL-5 melanoma, in the experiment on SK-OV-3 ovarian and with TK-10 renal was over 100 µM in each case.
For the molecule `NC1=Nc2ncccc2C(=O)NN1`, the TGI with 786-0 renal, in the experiment with HCT-15 colon, in the experiment on M14 melanoma, with MDA-N, with OVCAR-5 ovarian and with RXF 393 renal was over 10 µM each time. The TGI in the experiment on SK-MEL-5 melanoma, in the experiment on SK-OV-3 ovarian, in the experiment with TK-10 renal and in the experiment on UACC-257 melanoma was over 10 µM throughout.
On to `CC(=O)OC1CCC2(C)C(CCC3C2CCC2(C)C(c4ccc(=O)oc4)C(OC(C)=O)CC32O)C1` (stereo not given), for which the TGI in the experiment on HCT-15 colon is 0.0313 µM; in the experiment with NCI/ADR-RES ovarian, 0.0555 µM; with OVCAR-5 ovarian, 0.173 µM; in the experiment on RXF 393 renal it was 0.0128 µM; in the experiment with SK-MEL-5 melanoma it was 0.0216 µM; in the experiment on SK-OV-3 ovarian, 0.103 µM. In the experiment with UACC-257 melanoma, this molecule had a TGI of 0.115 µM.
Turning to `O=S(c1ccc(O)cc1)c1ccc(O)cc1`, the TGI in the experiment on 786-0 renal, in the experiment on HCT-15 colon, in the experiment on M14 melanoma, with OVCAR-5 ovarian, in the experiment on RXF 393 renal and with SK-MEL-5 melanoma was over 100 µM throughout. In addition, the TGI with SK-OV-3 ovarian, with TK-10 renal and with UACC-257 melanoma was over 100 µM throughout.
`CC/C(CC(=O)CCC(=O)Nc1ccc(C)c(C)c1)=N\NC(=O)c1cc2ccccc2cc1O`: the TGI in the experiment with HCT-15 colon is over 100 µM; with M14 melanoma it was 42.5 µM; in the experiment on OVCAR-5 ovarian, over 100 µM; in the experiment on RXF 393 renal it was 66.7 µM; in the experiment on SK-OV-3 ovarian, 87.3 µM; with UACC-257 melanoma it was over 100 µM.
With `COc1cccc(C2c3cc4c(cc3OC(NNS(=O)(=O)c3ccc(C)cc3)C2C)OCO4)c1O` (stereo not given), the TGI in the experiment on 786-0 renal is over 100 µM; in the experiment on HCT-15 colon, over 100 µM; with M14 melanoma, over 100 µM; in the experiment on MDA-N it was 80.1 µM; in the experiment with OVCAR-5 ovarian it was over 100 µM; with RXF 393 renal, 70.9 µM. Also, the TGI in the experiment on SK-MEL-5 melanoma is 42 µM; with SK-OV-3 ovarian it was over 100 µM; in the experiment with TK-10 renal, 95.2 µM; with UACC-257 melanoma, over 100 µM.
`Cc1cc2nc3c(N)nn(CCCN(C)C)c3nc2cc1C`: the TGI in the experiment with 786-0 renal, with HCT-15 colon, in the experiment with M14 melanoma, in the experiment with NCI/ADR-RES ovarian, in the experiment on OVCAR-5 ovarian and with RXF 393 renal was over 100 µM throughout. In addition, the TGI in the experiment on SK-MEL-5 melanoma, in the experiment on SK-OV-3 ovarian, in the experiment with TK-10 renal and with UACC-257 melanoma was over 100 µM throughout.
For `COc1cc2c(cc1C)NC(=O)/C2=C/c1c(Cl)[nH]c2ccccc12`, the TGI came to 20 µM with 786-0 renal; 14.6 µM in the experiment with HCT-15 colon; 13.3 µM with M14 melanoma; 3.82 µM with MDA-N; 24.4 µM in the experiment with OVCAR-5 ovarian; 24.7 µM in the experiment with RXF 393 renal. The TGI in the experiment on SK-MEL-5 melanoma amounted to 11.4 µM; in the experiment with SK-OV-3 ovarian, 7.71 µM; with TK-10 renal, 22.1 µM; with UACC-257 melanoma, 22.8 µM.
As to `C(/C=C(\Nc1ccccc1)c1ccc2ccccc2c1)=Nc1ccccc1`, the TGI with 786-0 renal was 8.9 µM; in the experiment with HCT-15 colon it was 5.61 µM; in the experiment with M14 melanoma, 6.14 µM; with NCI/ADR-RES ovarian, 3.93 µM; with OVCAR-5 ovarian it was 9.86 µM; in the experiment on RXF 393 renal it was 7.41 µM. In addition, the TGI in the experiment on SK-MEL-5 melanoma was 13.8 µM; with SK-OV-3 ovarian, 11.5 µM; with TK-10 renal, 4.47 µM; in the experiment on UACC-257 melanoma, 19.2 µM.
For the molecule `O=C(c1ccccc1)c1nn(-c2cccc(Cl)c2)c2nc3nc(-c4ccccc4)cc(=O)n3nc12`, the GI50 in the experiment on HCT-15 colon, with M14 melanoma, with NCI/ADR-RES ovarian, in the experiment on RXF 393 renal, with SK-MEL-5 melanoma and in the experiment on SK-OV-3 ovarian was over 25 µM in each case. Moreover, the GI50 with TK-10 renal and in the experiment on UACC-257 melanoma was over 25 µM each time. Further, the TGI with HCT-15 colon, in the experiment with M14 melanoma, with NCI/ADR-RES ovarian, in the experiment with RXF 393 renal, in the experiment on SK-MEL-5 melanoma and with SK-OV-3 ovarian was over 25 µM throughout. For the same molecule, the TGI in the experiment on TK-10 renal and with UACC-257 melanoma was over 25 µM in each case.

Source of the values: PubChem BioAssay (NCI).
